From patent publication US10391180B2, “Self-assembling complex for targeting chemical agents to cells” (CEDARS-SINAI MEDICAL CENTER, priority 2007, dated 2019)

Assays:
[1] = test system: MDA-MB-231 (HER2−) cells; experiment: Targeted toxicity, MTT assay, separate dishes; assay type: cell-based; settings: HerDox/Dox 0.5 uM Dox; HerPBK10 0.1 uM; day 3
Protocol: (§1) FIG. 7 illustrates targeted toxicity. Each cell line was exposed to HerDox (0.5 uM Dox cone), Dox alone (0.5 uM), or HerPBK10 alone for 4 h at 37° C. in complete (i.e. serum-containing) media, followed by aspiration to remove free conjugate, and addition of fresh medium while cells are grown continuously. Cell titer was determined by metabolic (i.e. MTT) assay. FIG. 7 upper panel illustrates the effect of HerDox on MDA-MB-231 (HER2−) and MDA-MB-435 (HER2+) cell survival. Relative surviving cell numbers are represented as a % of corresponding untreated cells. FIG. 7 lower panel illustrates comparison of HerDox, Dox alone, or HerPBK10 alone on HER2− and HER2+ cell survival. Relative survival (as % of untreated cells) is shown for Day 3 of treatment.
(§2) The inventors compared the effect of HerDox or Dox alone at equivalent dosages (0.5 uM with respect to Dox concentration) on HER2+ and HER2− breast cancer cells in separate dishes. By three days, HerDox reduced HER2+ cell numbers by over 75% whereas HER2− cell survival was unaffected (FIG. 7). […] These findings emphasize the importance of targeting by showing that the untargeted drug affects nontarget (i.e. HER2−) cells. Importantly, the protein carrier, HerPBK10, alone at the equivalent concentration of protein in HerDox (0.1 uM) had no effect on either cell line (FIG. 7), including a lack of proliferation induction. To test receptor targeting, the inventors used free heregulin ligand (Her or eHRG) as a competitive inhibitor. […] As a final in vitro challenge, the inventors tested whether HerDox induces toxicity specifically to HER2+ cells in a mixed culture of HER2+ and HER2− breast cancer cells. To do this, the inventors produced a HER2− cell line tagged with green fluorescent protein (GFP) for cell identification in the mixed culture (FIG. 9 (A)). […] Altogether, these findings indicate that HerDox has the capacity to preferentially target toxicity to HER2+ cells. […] Moreover, the preferential cell killing of HER2+ cells in a mixed culture of HER2+ and HER2− cells implies that after death and lysis of the target cells, the Dox released into those cells is incapable of continuing to induce toxicity to HER2− cells. To further confirm the stability of HerDox in cell culture, HerDox was recovered from culture media in separate experiments at indicated time points and electrophoresed on an agarose gel, which was then illuminated by UV to detect Dox and stained with Coomassie blue to detect HerPBK10 protein (FIG. 9 (C)). […] Co-migration of HerPBK10 bands further verified that the conjugates remained intact in the cell media.

[2] = test system: MDA-MB-435 (HER2+) cells; experiment: Targeted toxicity, MTT assay, separate dishes; assay type: cell-based; settings: Dox 0.5 uM; HerPBK10 0.1 uM; day 3
Protocol: as §1, §2

[3] = test system: bilateral flank tumors (HER2+); experiment: In vivo tumor toxicity, tumor growth; set-up: species or system mice; settings: daily tail vein injections, 0.004 mg/kg Dox conc, 7 consecutive days
Protocol: (§3) FIGS. 12 (A)-(D) illustrates comparison of HerDox and Dox on (A) tumor growth, (B) animal weight, (C) cardiac tissue, and (D) cardiac function.
To assess in vivo tumor toxicity, mice bearing 3-4 week bilateral flank tumors began receiving daily tail vein injections of Dox or HerDox (0.004 mg/kg with respect to Dox conc), HerPBK10 alone (at equivalent protein concentration to HerDox) or saline for 7 consecutive days.

[4] = test system: MDA-MB-435 cells; experiment: HerPBK10 binding to cells in human serum, ELISA; assay type: cell-based; settings: 1.2 ug/well, cells exposed 2 hours to human sera
Protocol: FIG. 16 illustrates HerPBK10 binding to MDA-MB-435 cells in human serum from HER2+ or HER2− breast cancer patients. Cells were treated with HerPBK10 (1.2 ug/well) in media containing human serum from each of 5 HER2+ breast cancer patients or age matched HER2− controls, both obtained pre-chemotherapy treatment. Cells were processed for ELISA using an antibody directed at HerPBK10. Control (C) wells receiving HerPBK10 in media containing bovine serum without or with 100× molar excess competitive ligand inhibitor (+ Her) are indicated by open bars. Patient sera were provided by the WCRI tissue bank at Cedars-Sinai Medical Center. N=3 wells per treatment.
To determine whether HerPBK10 can compete with circulating ligand that may be present in serum, the inventors tested HerPBK10 binding to HER2+ breast cancer cells in human serum obtained from HER2+ patients. The Women's Cancer Research Institute at Cedars-Sinai occasionally acquires limited quantities of patient serum, of which sera from HER2+ patients comprises an even smaller minority. […] Here, the inventors replaced the bovine serum in the routine culturing media with the human serum obtained from the acquired patient samples to assess whether the human serum, especially from HER2+ patients, inhibits cell binding. […]

[5] = in the presence of serum; cited from earlier work
[6] = test system: HER2+ tumors; experiment: HerDox vs Dox biodistribution by Dox fluorescence imaging; assay type: in vivo, mice
Protocol: FIGS. 11 (A)-(B) illustrates preferential targeting of HerDox to HER2+ tumors. Tumor-bearing mice were injected with 0.75 nmoles of HerDox or Dox via the tail vein and imaged with a custom small animal imager. FIG. 11 (A) depicts imaging of live mice after IV delivery of HerDox. Tumors are indicated by arrows. FIG. 11 (B) depicts imaging of tumors and tissues harvested at 3 h after injection of HerDox or Dox. Fluorescence signal from Dox is pseudo-colored according to the color bar, with a shift toward 100 indicating high fluorescence intensity. FIG. 11 (B) illustrates a comparison of the targeted delivery of Dox to HER2+ breast cancer cells with minimal delivery to other organs and tissues using a delivery system in accordance with an embodiment of the present invention (left panel), as compared with Dox administered alone (right panel).
Dox emits a red fluorescence upon appropriate wavelength excitation, which can be used to detect biodistribution after systemic delivery of HerDox. Mice bearing 4-week old) tumors (˜700-800 mm^3) received a single tail vein injection of Dox or HerDox ([…] with respect to Dox cone) and images of live mice captured in real time, or of organs/tissues harvested at ˜3 h postinjection were acquired using a customized macro-illumination and detection system. Fluorescence was evident throughout the body at 10 min after HerDox injection, then quickly accumulated at the tumors by 20 min and remained detectable in the tumors up to 100 min after injection (FIG. 11 (A)).

[7] = test system: hearts of mice; experiment: Cardiac tissue histology and echocardiography; assay type: in vivo
From the text: as §3
At 25 days following injections, tumors and organs were harvested and processed for histochemistry. It is established that Dox can induce acute and long-term cardiotoxicity, therefore, the inventors examined the hearts of mice treated with HerDox or Dox.

[8] = test system: MDA-MB-435 cells; experiment: Intracellular translocation in live cells, Dox fluorescence microscopy; assay type: cell-based
Protocol: FIGS. 14 (A)-(B) illustrates comparison of HerDox and Dox intracellular translocation and targets in live cells. MDA-MB-435 cells were incubated with HerDox or free Dox (0.5 uM) at 37° C. Live (unfixed) cells were imaged by brightfield and fluorescence as depicted in […], or DIC and confocal fluorescence, as depicted in FIG. 14 (B), microscopy. Dox is indicated by red or magenta pseudocolor.
To understand the mechanism of HerDox mediated tumor cell death, the inventors examined HER2+ cells microscopically after treatment with HerDox, using Dox fluorescence to detect intracellular location. […] These dynamics, in addition to earlier targeting results, support a receptor-mediated HerDox entry mechanism. Even the intranuclear pattern of Dox when delivered by HerPBK10 differs from free Dox.

[9] = harvested at 3 h after injection

HerPBK10: receptor binding domain of heregulin fused to adenovirus penton base protein modified by a C-terminal decalysine
effect on HER2− cell survival [1]: no effect
effect on HER2+ cell numbers [2]: no effect
tumor growth [3]: no effect
cell binding in serum from HER2+ patients, HER2− patients, or bovine serum [4]: no significant differences
receptor targeting under physiological conditions [5]: retains receptor targeting

COc1cccc2c1C(=O)c1c(O)c3c(c(O)c1C2=O)C[C@@](O)(C(=O)CO)C[C@@H]3O[C@H]1C[C@H](N)[C@H](O)[C@H](C)O1 [Dox, doxorubicin, reference compound]
effect on HER2− cell survival [1]: reduced both HER2+ and HER2− cells by the same order of magnitude
effect on HER2+ cell numbers [2]: reduced both HER2+ and HER2− cells by the same order of magnitude
Dox fluorescence in kidneys [6, 9]: detectable fluorescence
Dox fluorescence in liver [6, 9]: detectable fluorescence
Dox fluorescence in tumors [6, 9]: detectable fluorescence
Dox fluorescence in lungs and skeletal muscle ([6]; harvested ~3 h after injection, equivalent dose of Dox): Lower levels of fluorescence
tumor growth [3]: slows tumor growth
gross appearance of hearts ([7]; 25 days following injections): slightly enlarged and dilated
myocardium morphology (histochemistry) ([7]; 25 days following injections): focal degeneration, myofibrillar loss, increased cytosoplasmic vacuolization, and nuclear condensation or dissolution
echocardiogram: stroke volume, cardiac output, left ventricular internal dimension and volume ([7]; treated mice): modest to marked reductions
intracellular location of Dox fluorescence ([8]; 0.5 uM, 0 min of uptake): inside the cell at the nuclear periphery
intranuclear pattern of Dox ([8]; live cells, confocal): accumulates in the cell nucleus
